# Experimental data from PubChem BioAssay (NCI).
#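 At the GI50, growth is halved. TGI: total growth inhibition.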
# Assays:
# Assay in all cases: NCI-60 cell line screen, 384-well format
# NCI-H226 lung = test system: NCI-H226 lung
# OVCAR-8 ovarian = test system: OVCAR-8 ovarian
# HOP-62 NSCLC = test system: HOP-62 NSCLC
# MCF7 breast = test system: MCF7 breast
# MOLT-4 leukemia = test system: MOLT-4 leukemia
# A498 renal = test system: A498 renal
# HCT-116 colon = test system: HCT-116 colon
# NCI-H322M lung = test system: NCI-H322M lung
# A549 NSCLC = test system: A549 NSCLC
# SF-539 CNS = test system: SF-539 CNS
# RXF 393 renal = test system: RXF 393 renal
# TK-10 renal = test system: TK-10 renal
# HL-60(TB) leukemia = test system: HL-60(TB) leukemia
# HS 578T breast = test system: HS 578T breast
# SN12C renal = test system: SN12C renal
# SNB-19 CNS = test system: SNB-19 CNS
# CAKI-1 renal = test system: CAKI-1 renal
# COLO 205 colon = test system: COLO 205 colon
# OVCAR-5 ovarian = test system: OVCAR-5 ovarian
# MALME-3M melanoma = test system: MALME-3M melanoma
# M14 melanoma = test system: M14 melanoma
# LOX IMVI melanoma = test system: LOX IMVI melanoma
# MDA-MB-435 melanoma = test system: MDA-MB-435 melanoma
# NCI-H522 lung = test system: NCI-H522 lung
# IGROV1 ovarian = test system: IGROV1 ovarian
# SK-OV-3 ovarian = test system: SK-OV-3 ovarian
# UACC-257 melanoma = test system: UACC-257 melanoma
# UACC-62 melanoma = test system: UACC-62 melanoma
# U251 glioblastoma = test system: U251 glioblastoma
# HCT-15 colon = test system: HCT-15 colon
# PC-3 prostate = test system: PC-3 prostate
# NCI-H460 NSCLC = test system: NCI-H460 NSCLC
# T-47D breast = test system: T-47D breast
# BT-549 breast = test system: BT-549 breast
# SF-268 CNS = test system: SF-268 CNS
# SNB-75 CNS = test system: SNB-75 CNS
# SK-MEL-5 melanoma = test system: SK-MEL-5 melanoma
# HCC-2998 colon = test system: HCC-2998 colon
# NCI/ADR-RES ovarian = test system: NCI/ADR-RES ovarian
# MDA-MB-231 breast = test system: MDA-MB-231 breast
# ACHN renal = test system: ACHN renal
# DU-145 prostate = test system: DU-145 prostate
# OVCAR-4 ovarian = test system: OVCAR-4 ovarian
# SF-295 CNS = test system: SF-295 CNS
# MDA-MB-468 breast = test system: MDA-MB-468 breast
# HOP-92 NSCLC = test system: HOP-92 NSCLC
# OVCAR-3 ovarian = test system: OVCAR-3 ovarian
# KM12 colon = test system: KM12 colon
# EKVX NSCLC = test system: EKVX NSCLC
# HT29 colon = test system: HT29 colon
# SR leukemia = test system: SR leukemia
# NCI-H23 lung = test system: NCI-H23 lung
# RPMI-8226 leukemia = test system: RPMI-8226 leukemia
# SK-MEL-28 melanoma = test system: SK-MEL-28 melanoma
compound,measurement,setting,value
CC(C)C[C@H](NC(=O)[C@@H](NC(=O)c1cccc(-c2ccccc2)n1)[C@@H](C)O)B(O)O,GI50,NCI-H226 lung,11.4 nM
same,TGI,NCI-H226 lung,103 nM
same,GI50,OVCAR-8 ovarian,374 nM
same,TGI,OVCAR-8 ovarian,1520 nM
same,GI50,HOP-62 NSCLC,237 nM
same,TGI,HOP-62 NSCLC,765 nM
same,GI50,MCF7 breast,129 nM
same,TGI,MCF7 breast,10.7 µM
same,GI50,MOLT-4 leukemia,21.8 nM
same,TGI,MOLT-4 leukemia,56.4 nM
same,GI50,A498 renal,312 nM
same,TGI,A498 renal,1850 nM
same,GI50,HCT-116 colon,160 nM
same,TGI,HCT-116 colon,347 nM
same,GI50,NCI-H322M lung,2030 nM
same,TGI,NCI-H322M lung,11.8 µM
same,GI50,A549 NSCLC,1080 nM
same,TGI,A549 NSCLC,16.3 µM
same,GI50,SF-539 CNS,165 nM
same,TGI,SF-539 CNS,308 nM
same,GI50,RXF 393 renal,147 nM
same,TGI,RXF 393 renal,297 nM
same,GI50,TK-10 renal,157 nM
same,TGI,TK-10 renal,418 nM
same,GI50,HL-60(TB) leukemia,77.6 nM
same,TGI,HL-60(TB) leukemia,198 nM
same,GI50,HS 578T breast,143 nM
same,TGI,HS 578T breast,294 nM
same,GI50,SN12C renal,123 nM
same,TGI,SN12C renal,422 nM
same,GI50,SNB-19 CNS,234 nM
same,TGI,SNB-19 CNS,870 nM
same,GI50,CAKI-1 renal,492 nM
same,TGI,CAKI-1 renal,19 µM
same,GI50,COLO 205 colon,442 nM
same,TGI,COLO 205 colon,> 100 µM
same,GI50,OVCAR-5 ovarian,260 nM
same,TGI,OVCAR-5 ovarian,940 nM
same,GI50,MALME-3M melanoma,104 nM
same,TGI,MALME-3M melanoma,239 nM
same,GI50,M14 melanoma,163 nM
same,TGI,M14 melanoma,305 nM
same,GI50,LOX IMVI melanoma,216 nM
same,TGI,LOX IMVI melanoma,507 nM
same,GI50,MDA-MB-435 melanoma,163 nM
same,TGI,MDA-MB-435 melanoma,305 nM
same,GI50,NCI-H522 lung,122 nM
same,TGI,NCI-H522 lung,249 nM
same,GI50,IGROV1 ovarian,560 nM
same,TGI,IGROV1 ovarian,2120 nM
same,GI50,SK-OV-3 ovarian,560 nM
same,TGI,SK-OV-3 ovarian,11 µM
same,GI50,UACC-257 melanoma,116 nM
same,TGI,UACC-257 melanoma,245 nM
same,GI50,UACC-62 melanoma,291 nM
same,TGI,UACC-62 melanoma,1160 nM
same,GI50,U251 glioblastoma,420 nM
same,TGI,U251 glioblastoma,1940 nM
same,GI50,HCT-15 colon,556 nM
same,TGI,HCT-15 colon,1880 nM
same,GI50,PC-3 prostate,257 nM
same,TGI,PC-3 prostate,685 nM
same,GI50,NCI-H460 NSCLC,426 nM
same,TGI,NCI-H460 NSCLC,1550 nM
same,GI50,T-47D breast,224 nM
same,TGI,T-47D breast,783 nM
same,GI50,BT-549 breast,139 nM
same,TGI,BT-549 breast,288 nM
same,GI50,SF-268 CNS,266 nM
same,TGI,SF-268 CNS,787 nM
same,GI50,SNB-75 CNS,297 nM
same,TGI,SNB-75 CNS,1260 nM
same,GI50,SK-MEL-5 melanoma,129 nM
same,TGI,SK-MEL-5 melanoma,285 nM
same,GI50,HCC-2998 colon,141 nM
same,TGI,HCC-2998 colon,371 nM
same,GI50,NCI/ADR-RES ovarian,11.1 µM
same,TGI,NCI/ADR-RES ovarian,24.5 µM
same,GI50,MDA-MB-231 breast,327 nM
same,TGI,MDA-MB-231 breast,1280 nM
same,GI50,ACHN renal,239 nM
same,TGI,ACHN renal,957 nM
same,GI50,DU-145 prostate,432 nM
same,TGI,DU-145 prostate,1760 nM
same,GI50,OVCAR-4 ovarian,210 nM
same,TGI,OVCAR-4 ovarian,569 nM
same,GI50,SF-295 CNS,374 nM
same,TGI,SF-295 CNS,1540 nM
same,GI50,MDA-MB-468 breast,168 nM
same,TGI,MDA-MB-468 breast,405 nM
same,GI50,HOP-92 NSCLC,432 nM
same,TGI,HOP-92 NSCLC,1890 nM
same,GI50,OVCAR-3 ovarian,103 nM
same,TGI,OVCAR-3 ovarian,228 nM
same,GI50,KM12 colon,346 nM
same,TGI,KM12 colon,1280 nM
same,GI50,EKVX NSCLC,523 nM
same,TGI,EKVX NSCLC,2850 nM
same,GI50,HT29 colon,127 nM
same,TGI,HT29 colon,274 nM
same,TGI,SR leukemia,221 nM
same,GI50,NCI-H23 lung,292 nM
same,TGI,NCI-H23 lung,1190 nM
same,GI50,RPMI-8226 leukemia,11.2 nM
same,TGI,RPMI-8226 leukemia,26 nM
same,GI50,SK-MEL-28 melanoma,89.1 nM
same,TGI,SK-MEL-28 melanoma,240 nM
